Results reported in PMC8140528 (Chemistry & biodiversity, 2021).
Where two headings read alike, the source gives them in different places.

Legend:
[1] = test system: human T-lymphocyte cells (CEM); experiment: Antiproliferative effect on CEM cells; format: cell-based; details: read-out: IC50 CEM
[2] = test system: human cervix carcinoma cells (HeLa); experiment: Antiproliferative effect on HeLa cells; format: cell-based; details: read-out: IC50 HeLa
[3] = test system: murine leukemia cells (L1210); experiment: Antiproliferative effect on L1210 cells; format: cell-based
[4] = Differential nuclear staining; format: cell-based; details: human
[5] = test system: CCRF-CEM (Acute Lymphoblastic leukemia); experiment: Differential nuclear staining; format: cell-based; details: Homo sapiens, CCRF-CEM, read-out: CC50 (death of 50% of the cells)
[6] = Differential nuclear staining; format: cell-based; details: human; remark: listed apart in the source
[7] = test system: Jurkat (Acute T Cell Leukemia); experiment: Differential nuclear staining; format: cell-based; details: Homo sapiens, Jurkat
[8] = Differential nuclear staining; format: cell-based; details: human, Hs27 non-cancerous fibroblast cells
[9] = test system: L1210, CEM and HeLa cells; experiment: Cytotoxicity screening over L1210, CEM and HeLa; format: cell-based; details: read-out: IC50 (range over the cell lines tested), L1210, CEM and HeLa together
Jurkat cells [10] = experiment: Annexin V-FITC/PI assay; format: cell-based, human; details: 7g at CC50 (2.36 μM) and CC100 (4.72 μM), vs vehicle control
Jurkat cells [11] = experiment: Mitochondrial depolarization assay; format: cell-based, human; details: JC-1, flow cytometry, 5 h
[12] = test system: caspase-3 in Jurkat cells; experiment: Caspase-3 activation assay; format: cell-based, human; details: CC50 (2.36 μM) and CC100 (4.72 μM), 7 h, vs controls
Jurkat cells [13] = experiment: Cell cycle analysis; format: cell-based, human
[14] = read-out: IC50 L1210, L1210 cells, mean ± SEM (n=3)
[15] = Mus musculus, L1210, read-out: IC50 L1210
[16] = read-out: CC50 (death of 50% of the cells)
[17] = read-out: CC50 (range for compounds 7g and 8b)
[18] = cells treated with the CC50, 48 h

SMILES | IC50 ([1]; Homo sapiens, CCRF-CEM) | IC50 ([2]; Homo sapiens, HeLa) | IC50 [3, 14] | IC50 [3, 15] | selectivity ratio [4] | CC50 [5] | selectivity ratio [6] | CC50 [7, 16] | CC50 [7, 17] | CC50 at 72 h [8] | IC50 [9] | further results
c1ccc([C@H]2CN3CCSC3=N2)cc1 [Levamisole, reference compound] | > 250000 nM | > 250000 nM |  |  |  |  |  |  |  |  |  | 
N[C@@H](Cc1ccc(N(CCCl)CCCl)cc1)C(=O)O [Melphalan, reference compound] | 1400 ± 400 nM |  | 2130 ± 20 nM |  |  |  |  |  |  |  |  | 
COc1ccc(Cc2nn3cc(-c4cc5ccccc5oc4=O)nc3s2)cc1 [Compound 5h] |  |  | 90000 ± 24000 nM |  |  |  |  |  |  |  |  | IC50 ([1]; CEM cells, mean ± SEM (n=3)): 5000 ± 3300 nM; IC50 ([2]; HeLa cells, mean ± SEM (n=3)): 70000 ± 4000 nM
COc1ccc(Cc2nn3c(C=O)c(-c4ccc(Cl)cc4)nc3s2)cc1 [Compound 8b, 6-(4-chlorophenyl)-2-(4-methoxybenzyl)imidazo[2,1-b][1,3,4]thiadiazole-5-carbaldehyde] | 940 ± 120 nM | 1300 ± 200 nM |  | 1100 ± 200 nM | 0.65 | 3620 ± 260 nM | 1.43 | 1650 ± 190 nM | 1650 to 4730 nM | 2360 ± 30 nM | 940 to 1300 nM | 
COc1ccc(Cc2nn3c(SC#N)c(-c4cc5ccccc5oc4=O)nc3s2)cc1 [Compound 7g, 2-(4-methoxybenzyl)-6-(2-oxo-2H-chromen-3-yl)imidazo[2,1-b][1,3,4]thiadiazol-5-yl thiocyanate] | 790 ± 350 nM | 780 ± 130 nM |  | 1600 ± 200 nM | 6.65 | 4730 ± 220 nM | 13.3 | 2360 ± 100 nM | 1650 to 4730 nM | 31400 ± 740 nM | 780 to 1600 nM | phosphatidylserine externalization (Jurkat cells [10]): inducing phosphatidylserine externalization in a dose-response manner; mitochondrial membrane depolarization (Jurkat cells [11]): not causing mitochondrial membrane depolarization; caspase-3 activation [12]: induced statistically significant activation of caspase-3; sub-G0/G1 subpopulation (DNA fragmentation) (Jurkat cells [13]; 7g at CC50 (2.36 μM) and CC100 (4.72 μM), 48 h): increase in sub-G0/G1 subpopulation; cell population in G2-M phase (Jurkat cells [13]; 48 h): increase of the cell population in the G2-M phase; cell population in S phase (Jurkat cells [13]; [18]): increase of cell population in the S phase; cell subpopulation in G0-G1 phase (Jurkat cells [13]; [18]): decrease of cell subpopulation in the G0-G1 phase
